ChEMBL document CHEMBL3885881, “DrugMatrix”

Species on record: Rattus norvegicus
Test: DrugMatrix - Regimen: Daily Repeat
Type: toxicity, organism-based, Sprague-Dawley
Set-up: regimen Daily Repeat, gender Male, age 6-8 weeks
Settings: in vivo, po, 0 mg/kg, route oral GAVAGE, dose level Control, vehicle 100 % WATER; for ABSOLUTE BASOPHIL / ABSOLUTE EOSINOPHIL / ABSOLUTE LYMPHOCYTE / ABSOLUTE MONOCYTE / ABSOLUTE SEGMENTED NEUTROPHIL / BASOPHIL / EOSINOPHIL / ERYTHROCYTE COUNT / HEMATOCRIT / HEMOGLOBIN / LEUKOCYTE COUNT / LYMPHOCYTE / MEAN CORPUSCULAR HEMOGLOBIN / MEAN CORPUSCULAR VOLUME / MONOCYTE / NEUTROPHIL / NUCLEATED RED BLOOD CELLS / PLATELET COUNT: tissue Blood; for ALANINE AMINOTRANSFERASE / ALBUMIN / ALKALINE PHOSPHATASE / ASPARTATE AMINOTRANSFERASE / BLOOD UREA NITROGEN / CARBON DIOXIDE / CHLORIDE / CHOLESTEROL / CREATINE PHOSPHOKINASE / CREATININE / GLUCOSE / LACTATE DEHYDROGENASE / LIPASE / PHOSPHORUS / POTASSIUM / SODIUM / TOTAL BILIRUBIN / TOTAL PROTEIN / URIC ACID: tissue Plasma

Compound: CCCCCCCCCCCCCCCC[n+]1ccccc1.[Br-]
- ABSOLUTE BASOPHIL (72 h, time 3 day): 0 CELLS/uL
- ABSOLUTE EOSINOPHIL (72 h, time 3 day): 58.83 CELLS/uL
- ABSOLUTE LYMPHOCYTE (72 h, time 3 day): 11823.5 CELLS/uL
- ABSOLUTE MONOCYTE (72 h, time 3 day): 169 CELLS/uL
- ABSOLUTE SEGMENTED NEUTROPHIL (72 h, time 3 day): 815.33 CELLS/uL
- BASOPHIL (72 h, time 3 day): 0%
- EOSINOPHIL (72 h, time 3 day): 0.5%
- ERYTHROCYTE COUNT (72 h, time 3 day): 5.52 x10E6/uL
- HEMATOCRIT (72 h, time 3 day): 35.77%
- HEMOGLOBIN (72 h, time 3 day): 14.28 G/DL
- LEUKOCYTE COUNT (72 h, time 3 day): 12.87 x10E3/uL
- LYMPHOCYTE (72 h, time 3 day): 91.67%
- MEAN CORPUSCULAR HEMOGLOBIN (72 h, time 3 day): 25.92 pg
- MEAN CORPUSCULAR VOLUME (72 h, time 3 day): 64.85 fL
- MONOCYTE (72 h, time 3 day): 1.33%
- NEUTROPHIL (72 h, time 3 day): 6.5%
- NUCLEATED RED BLOOD CELLS (72 h, time 3 day): 0 /100WBC
- PLATELET COUNT (72 h, time 3 day): 1246.17 x10E3/uL
- ALANINE AMINOTRANSFERASE (72 h, time 3 day): 66 u/L
- ALBUMIN (72 h, time 3 day): 4.25 G/DL
- ALKALINE PHOSPHATASE (72 h, time 3 day): 416 u/L
- ASPARTATE AMINOTRANSFERASE (72 h, time 3 day): 106.17 u/L
- BLOOD UREA NITROGEN (72 h, time 3 day): 12.67 mg/dL
- CARBON DIOXIDE (72 h, time 3 day): 31.83 mmol/L
- CHLORIDE (72 h, time 3 day): 102.5 MEQ/L
- CHOLESTEROL (72 h, time 3 day): 69 mg/dL
- CREATINE PHOSPHOKINASE (72 h, time 3 day): 601.83 u/L
- CREATININE (72 h, time 3 day): 0.18 mg/dL
- GLUCOSE (72 h, time 3 day): 154.5 mg/dL
- LACTATE DEHYDROGENASE (72 h, time 3 day): 301.83 u/L
- LIPASE (72 h, time 3 day): 11.17 u/L
- PHOSPHORUS (72 h, time 3 day): 12.08 mg/dL
- POTASSIUM (72 h, time 3 day): 6.12 MEQ/L
- SODIUM (72 h, time 3 day): 145.2 MEQ/L
- TOTAL BILIRUBIN (72 h, time 3 day): 0.17 mg/dL
- TOTAL PROTEIN (72 h, time 3 day): 6.1 G/DL
- URIC ACID (72 h, time 3 day): 1.57 mg/dL
- ABSOLUTE BASOPHIL (120 h, time 5 day): 0 CELLS/uL
- ABSOLUTE EOSINOPHIL (120 h, time 5 day): 19.33 CELLS/uL
- ABSOLUTE LYMPHOCYTE (120 h, time 5 day): 12577.83 CELLS/uL
- ABSOLUTE MONOCYTE (120 h, time 5 day): 106.33 CELLS/uL
- ABSOLUTE SEGMENTED NEUTROPHIL (120 h, time 5 day): 896.5 CELLS/uL
- BASOPHIL (120 h, time 5 day): 0%
- EOSINOPHIL (120 h, time 5 day): 0.17%
- ERYTHROCYTE COUNT (120 h, time 5 day): 5.84 x10E6/uL
- HEMATOCRIT (120 h, time 5 day): 36.88%
- HEMOGLOBIN (120 h, time 5 day): 14.48 G/DL
- LEUKOCYTE COUNT (120 h, time 5 day): 13.6 x10E3/uL
- LYMPHOCYTE (120 h, time 5 day): 92.17%
- MEAN CORPUSCULAR HEMOGLOBIN (120 h, time 5 day): 24.85 pg
- MEAN CORPUSCULAR VOLUME (120 h, time 5 day): 63.23 fL
- MONOCYTE (120 h, time 5 day): 0.83%
- NEUTROPHIL (120 h, time 5 day): 6.83%
- NUCLEATED RED BLOOD CELLS (120 h, time 5 day): 0 /100WBC
- PLATELET COUNT (120 h, time 5 day): 1223.5 x10E3/uL
- ALANINE AMINOTRANSFERASE (120 h, time 5 day): 55.33 u/L
- ALBUMIN (120 h, time 5 day): 4.08 G/DL
- ALKALINE PHOSPHATASE (120 h, time 5 day): 355.5 u/L
- ASPARTATE AMINOTRANSFERASE (120 h, time 5 day): 87.67 u/L
- BLOOD UREA NITROGEN (120 h, time 5 day): 15.33 mg/dL
- CARBON DIOXIDE (120 h, time 5 day): 33.83 mmol/L
- CHLORIDE (120 h, time 5 day): 99.67 MEQ/L
- CHOLESTEROL (120 h, time 5 day): 72.17 mg/dL
- CREATINE PHOSPHOKINASE (120 h, time 5 day): 268.33 u/L
- CREATININE (120 h, time 5 day): 0.15 mg/dL
- GLUCOSE (120 h, time 5 day): 152.5 mg/dL
- LACTATE DEHYDROGENASE (120 h, time 5 day): 212.67 u/L
- LIPASE (120 h, time 5 day): 10.83 u/L
- PHOSPHORUS (120 h, time 5 day): 11.65 mg/dL
- POTASSIUM (120 h, time 5 day): 6.73 MEQ/L
- SODIUM (120 h, time 5 day): 142.43 MEQ/L
- TOTAL BILIRUBIN (120 h, time 5 day): 0.23 mg/dL
- TOTAL PROTEIN (120 h, time 5 day): 6.07 G/DL
- URIC ACID (120 h, time 5 day): 1.7 mg/dL
